For the data set the following is noted: 100% relative humidity over 48 hours.

Take `CCOC(=O)N1c2ccc(C(F)(F)F)cc2[C@@H](N(Cc2cc(C(F)(F)F)cc(C(F)(F)F)c2)C(=O)OC)C[C@H]1CC` [Example 9, Anhydrous (−)-(2R,4S)-4-[(3,5-Bis-trifluoromethyl-benzyl)-methoxycarbonyl-amino]-2-ethyl-6-trifluoromethyl-3,4-dihydro-2H-quinoline-1-carboxylic Acid Ethyl Ester]: the Hygroscopicity entry is on record as “Non-hygroscopic”.
